Laboratory results reported in US12077537B2 (Gilead Sciences, Inc., priority 2020, dated 2024).

Tested on: HIV-IIIb
Test: Antiviral assay in MT4 cells
Format: cell-based
Settings: Human immunodeficiency virus 1, MT4, 120 h; MT-4 cells mixed with HIV-IIIb at m.o.i. 0.003; 5 days at 37° C.; CellTiter-Glo luminescence; 50% decrease in signal, a measure of HIV-1 replication
How it was run: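 Compound, tested at ten 3-fold dilutions in quadruplicate in 10% FBS medium, received MT-4 cells pre-mixed 1 hour with HIV-IIIb (m.o.i. 0.003). Protection was read as luminescent cell viability (CellTiter-Glo) after 5 days' culture at 37° C.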

Row | SMILES | EC50 [nM]
1 | Cn1nc(N)c2cccc(-c3cc4sc(N5CC(C)(O)C5)nc4nc3[C@H](Cc3cc(F)cc(F)c3)NC(=O)Cn3nc(C(F)F)c4c3C(F)(F)[C@@H]3C[C@H]43)c21 [Compound 59, N—((S)-1-(6-(3-amino-1-methyl-1H-indazol-7-yl)-2-(3-hydroxy-3-methylazetidin-1-yl)thiazolo[4,5-b]pyridin-5-yl)-2-(3,5-difluorophenyl)ethyl)-2-((3bS,4aR)-3-(difluoromethyl)-5,5-difluoro-3b,4,4a,5-tetrahydro-1H-cyclopropa[3,4]cyclopenta[1,2-c]pyrazol-1-yl)acetamide] | 16.3
2 | CCS(=O)(=O)Nc1nn(C)c2c(-c3cc4sc(NCC(C)(C)O)nc4nc3[C@H](Cc3cc(F)cc(F)c3)NC(=O)Cn3nc(C(F)F)c4c3C(F)(F)[C@@H]3C[C@H]43)cccc12 [Compound 61, 2-((3bS,4aR)-3-(difluoromethyl)-5,5-difluoro-3b,4,4a,5-tetrahydro-1H-cyclopropa[3,4]cyclopenta[1,2-c]pyrazol-1-yl)-N—((S)-2-(3,5-difluorophenyl)-1-(6-(3-(ethylsulfonamido)-1-methyl-1H-indazol-7-yl)-2-((2-hydroxy-2-methylpropyl)amino)thiazolo[4,5-b]pyridin-5-yl)ethyl)acetamide] | 10
3 | CCS(=O)(=O)Nc1nn(C)c2c(-c3cc4sc(NCC(C)(C)O)nc4nc3[C@H](Cc3cc(F)cc(F)c3)NC(=O)Cn3nc(C(F)(F)F)c4c3C(F)(F)[C@@H]3C[C@H]43)cccc12 [Compound 63, 2-((3bS,4aR)-5,5-difluoro-3-(trifluoromethyl)-3b,4,4a,5-tetrahydro-1H-cyclopropa[3,4]cyclopenta[1,2-c]pyrazol-1-yl)-N—((S)-2-(3,5-difluorophenyl)-1-(6-(3-(ethylsulfonamido)-1-methyl-1H-indazol-7-yl)-2-((2-hydroxy-2-methylpropyl)amino)thiazolo[4,5-b]pyridin-5-yl)ethyl)acetamide] | 7.2
4 | CC(C)N1CCN(c2nc3nc([C@H](Cc4cc(F)cc(F)c4)NC(=O)Cn4nc(C(F)(F)F)c5c4C(F)(F)[C@@H]4C[C@H]54)c(-c4cccc5c(NS(C)(=O)=O)nn(C)c45)cc3s2)CC1 [Compound 64, 2-((3bS,4aR)-5,5-difluoro-3-(trifluoromethyl)-3b,4,4a,5-tetrahydro-1H-cyclopropa[3,4]cyclopenta[1,2-c]pyrazol-1-yl)-N—((S)-2-(3,5-difluorophenyl)-1-(2-(4-isopropylpiperazin-1-yl)-6-(1-methyl-3-(methylsulfonamido)-1H-indazol-7-yl)thiazolo[4,5-b]pyridin-5-yl)ethyl)acetamide] | 9.2

More lines, in order of falling EC50, values ahead:

Row | EC50 [nM] | SMILES
5 | 60 | Cn1nc(N)c2cccc(-c3cc4sc(NCC(C)(C)O)nc4nc3[C@H](Cc3cc(F)cc(F)c3)NC(=O)Cn3nc(C(F)F)c4c3C(F)(F)CCC4(F)F)c21 [Compound 60, (S)—N-(1-(6-(3-amino-1-methyl-1H-indazol-7-yl)-2-((2-hydroxy-2-methylpropyl)amino)thiazolo[4,5-b]pyridin-5-yl)-2-(3,5-difluorophenyl)ethyl)-2-(3-(difluoromethyl)-4,4,7,7-tetrafluoro-4,5,6,7-tetrahydro-1H-indazol-1-yl)acetamide]
6 | 7.9 | Cn1nc(NS(=O)(=O)C2CC2)c2cccc(-c3cc4sc(NCC(C)(C)O)nc4nc3[C@H](Cc3cc(F)cc(F)c3)NC(=O)Cn3nc(C(F)F)c4c3C(F)(F)[C@@H]3C[C@H]43)c21 [Compound 62, N—((S)-1-(6-(3-(cyclopropanesulfonamido)-1-methyl-1H-indazol-7-yl)-2-((2-hydroxy-2-methylpropyl)amino)thiazolo[4,5-b]pyridin-5-yl)-2-(3,5-difluorophenyl)ethyl)-2-((3bS,4aR)-3-(difluoromethyl)-5,5-difluoro-3b,4,4a,5-tetrahydro-1H-cyclopropa[3,4]cyclopenta[1,2-c]pyrazol-1-yl)acetamide]
